Like-named read-outs stand apart in the source and are kept apart here.
Columns and labels:
FFA3/GPR41 = target: T1, FFA3/GPR41 (Homo sapiens, UniProt O14843); experiment: forskolin-stimulated cAMP accumulation assay, Flp-In-293 cells stably expressing FFA3/GPR41; format: cell-based; settings: for inhibition at 50 µM / Emax: Flp-In-293; for inhibition at 50 µM: 50 µM compound, NA = not active up to 50 µM; for Emax / EC50: mean ± SD; for Emax: read-out: FFA3/GPR41 Emax, maximal inhibition of forskolin-stimulated cAMP (converted); for EC50: inhibition of forskolin-stimulated cAMP, absence of propionate, read-out: FFA3/GPR41 EC50; for activity towards FFA3/GPR41 (in words): cAMP assay
T1 construct: host or cells: Flp-In-293
T1 sequence (O14843 1-346): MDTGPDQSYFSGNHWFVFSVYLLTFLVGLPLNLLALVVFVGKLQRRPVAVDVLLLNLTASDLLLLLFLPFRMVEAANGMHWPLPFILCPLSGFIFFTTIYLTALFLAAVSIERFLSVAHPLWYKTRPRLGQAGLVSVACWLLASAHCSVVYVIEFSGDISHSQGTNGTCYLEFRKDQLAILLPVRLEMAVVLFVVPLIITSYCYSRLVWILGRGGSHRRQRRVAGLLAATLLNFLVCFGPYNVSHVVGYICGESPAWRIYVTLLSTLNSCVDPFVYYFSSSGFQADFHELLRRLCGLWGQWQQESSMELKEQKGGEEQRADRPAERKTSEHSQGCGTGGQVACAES
Procedure: (§1) All of our synthesized compounds were evaluated in forskolin-stimulated cAMP accumulation assay using Flp-In-293 cells stably expressing human FFA2/GPR43, FFA3/GPR41 or HCA2/GPR109A receptors (Table 1, Table 2 and Table 3; Figure 2).
(§2) Flp-In-293 cells (Invitrogen) were used for the generation of stable FFA3/GPR41 and FFA2/GRP43 cell lines using Flp-In System (Invitrogen). Flp-In-293 cells were cultured in Dulbecco’s modified Eagle medium (DMEM) supplemented with 10% fetal bovine serum (FBS), penicillin (100 U/mL), streptomycin (100 µg/mL), and zeocin (100 µg/mL). The cells were co-transfected with pOG44 (Invitrogen) and pcDNA5/FRT-FFA3 or pcDNA5/FRT-FFA2 using TurboFect (Thermo Fisher Scientific), and stable cell lines were generated according to the manufacturer’s protocol (Invitrogen). After transfection, the cells were cultured under selection pressure due to the presence of hygromycin B (100 µg/mL) in DMEM supplemented with 10% FBS, penicillin, and streptomycin.
(§3) For cAMP assay, the cells were distributed into a 384-well white microplate at a density of 12,000 cells per well and stimulated with the indicated compounds in the presence of 3 μM forskolin for 30 min. […] The cells and the compounds were diluted in 1X phosphate-buffered saline (PBS) supplemented with 0.5 mM of 3-isobutyl-1-methylxanthine. The intracellular cAMP levels were measured using a Lance cAMP kit according to the manufacturer’s instructions. The plates were read on a PerkinElmer Victor 3V multilabel plate reader. The cAMP was quantitated in each sample by comparison to a calibration curve of known cAMP quantities provided in the kit.

FFA2/GPR43 = target: T2, FFA2/GPR43 (Homo sapiens, UniProt O15552); experiment: forskolin-stimulated cAMP accumulation assay, Flp-In-293 cells stably expressing FFA2/GPR43; format: cell-based; settings: for inhibition at 50 µM / Emax: Flp-In-293; for inhibition at 50 µM: 50 µM compound, NA = not active up to 50 µM; for activity towards FFA2/GPR43 (in words): cAMP assay; for Emax / EC50: mean ± SD; for Emax: read-out: FFA2/GPR43 Emax, maximal inhibition of forskolin-stimulated cAMP (converted); for EC50: inhibition of forskolin-stimulated cAMP
T2 construct: host or cells: Flp-In-293
T2 sequence (O15552 1-330): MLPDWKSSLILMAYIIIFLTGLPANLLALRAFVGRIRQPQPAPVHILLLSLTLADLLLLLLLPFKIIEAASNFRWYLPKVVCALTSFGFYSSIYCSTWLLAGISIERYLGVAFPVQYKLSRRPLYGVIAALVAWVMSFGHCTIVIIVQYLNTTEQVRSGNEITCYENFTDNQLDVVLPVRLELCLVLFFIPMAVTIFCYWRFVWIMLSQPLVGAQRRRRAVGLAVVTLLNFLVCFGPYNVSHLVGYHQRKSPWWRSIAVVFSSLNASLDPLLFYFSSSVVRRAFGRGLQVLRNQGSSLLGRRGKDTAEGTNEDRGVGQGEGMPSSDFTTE
Procedure: as §1, §2, §3

HCA2/GPR109A = target: T3, HCA2/GPR109A (Homo sapiens, UniProt Q8TDS4); experiment: forskolin-stimulated cAMP accumulation assay, Flp-In-293 cells stably expressing HCA2/GPR109A; format: cell-based; settings: for activity towards HCA2/GPR109A (in words): cAMP assay; for inhibition at 50 µM: 50 µM compound, NA = not active up to 50 µM
T3 construct: expressed in transfected cells; host or cells: Flp-In-293
Procedure: as §1
Flp-In-293 cells stably expressing human HCA2/GPR109A receptor (laboratory collection) were grown in DMEM medium supplemented with 10% FBS, penicillin, streptomycin, and hygromycin B (100 µg/mL). All cells were cultured at 37 °C in a humidified incubator containing 5% CO2.
as §3

[1] = cyclic voltammetry, electrooxidation potential; format: physicochemical; settings: vs. Ag/Ag+; acetonitrile, glassy carbon electrode
Procedure: Cyclic voltammetry experiments were carried out using a PARSTAT 2273 electrochemical system. A stationary glassy carbon disk electrode (d = 0.8 mm) served as the working electrode, while the counter electrode was a Pt wire. The oxidation potentials were measured relative to an Ag/Ag^+ reference electrode. Acetonitrile was dried over P2O5 and distilled; the distillate was stored over CaH2 and redistilled immediately prior to use. Recrystallized tetrabutylammonium tetrafluoroborate (TBATFB) was used as a supporting electrolyte at 0.1 M concentration.

[2] = HCA2, mean ± SD, read-out: HCA2/GPR109A Emax, maximal inhibition of forskolin-stimulated cAMP (converted)
[3] = inhibition of forskolin-stimulated cAMP, mean ± SD, read-out: HCA2/GPR109A EC50

T3 sequence (Q8TDS4 whole entry): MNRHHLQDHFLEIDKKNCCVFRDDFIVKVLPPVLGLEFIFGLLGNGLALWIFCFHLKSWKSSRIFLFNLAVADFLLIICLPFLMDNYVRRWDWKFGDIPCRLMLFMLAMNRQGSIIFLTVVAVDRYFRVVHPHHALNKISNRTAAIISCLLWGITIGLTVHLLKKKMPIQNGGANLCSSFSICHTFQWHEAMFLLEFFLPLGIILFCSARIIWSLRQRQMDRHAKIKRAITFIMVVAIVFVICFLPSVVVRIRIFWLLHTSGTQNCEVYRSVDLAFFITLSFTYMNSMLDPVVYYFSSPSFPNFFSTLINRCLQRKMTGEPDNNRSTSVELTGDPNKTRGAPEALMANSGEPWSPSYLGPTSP

SMILES | inhibition at 50 µM (FFA3/GPR41) [%] | Emax (FFA3/GPR41) [%] | EC50 (FFA3/GPR41) [nM] | inhibition at 50 µM (FFA2/GPR43) [%] | Emax (HCA2/GPR109A; [2]) [%] | EC50 (HCA2/GPR109A; [3]) [nM] | further results
CC1=C(C(=O)Nc2ccc(Cl)cc2)C(c2cccs2)C2=C(CCCC2=O)N1 (stereo not drawn) [1-5, N-(4-Chlorophenyl)-2-methyl-5-oxo-4-(thiophen-2-yl)-1,4,5,6,7,8-hexahydroquinoline-3-carboxamide] | 45 ± 9 | – | – | – | – | – | –
CC1=C(C(=O)Nc2ccc(Cl)cc2Cl)C(c2cccs2)C2=C(CCCC2=O)N1 (stereo not drawn) [1-6, N-(2,4-Dichlorophenyl)-2-methyl-5-oxo-4-(thiophen-2-yl)-1,4,5,6,7,8-hexahydroquinoline-3-carboxamide] | – | 82 | 1400 ± 170 | – | – | – | –
CC1=C(C(=O)Nc2ccccn2)C(c2cccs2)C2=C(CCCC2=O)N1 (stereo not drawn) [1-7, 2-Methyl-5-oxo-N-(pyridin-2-yl)-4-(thiophen-2-yl)-1,4,5,6,7,8-hexahydroquinoline-3-carboxamide] | – | – | – | 49 ± 8 | – | – | activity towards FFA3/GPR41 (in words) (FFA3/GPR41): lost; activity towards FFA2/GPR43 (in words) (FFA2/GPR43): showed activity
CC1=C(C(=O)N2CCOCC2)C(c2cccs2)C2=C(CCCC2=O)N1 (stereo not drawn) [1-8, 2-Methyl-3-(morpholine-4-carbonyl)-4-(thiophen-2-yl)-4,6,7,8-tetrahydro-1H-quinolin-5-one] | 28 ± 2 | – | – | – | – | – | activity towards HCA2/GPR109A (in words) (HCA2/GPR109A): lacked activity; activity towards FFA2/GPR43 (in words) (FFA2/GPR43): lacked activity
CCOC(=O)COC(=O)C1=C(C)NC2=C(C(=O)CCC2)C1c1cccs1 (stereo not drawn) [1-9] | – | 91 | 1900 ± 400 | 40 ± 2 | – | – | El.ox. pot. (first, lower potential) [1]: 1.18 V
CCOC(=O)C(OC(=O)C1=C(C)NC2=C(C(=O)CCC2)C1c1cccs1)c1ccccc1 (stereo not drawn) [1-10, (2-Ethoxy-2-oxo-1-phenylethyl)2-methyl-5-oxo-4-(2-thienyl)-4,6,7,8-tetrahydro-1H-quinoline-3-carboxylate] | 49 ± 15 | – | – | 31 ± 4 | – | – | inhibition at 50 µM (HCA2/GPR109A; HCA2): 60 ± 5%; El.ox. pot. (first, lower potential) [1]: 1.18 V
CCCNCC1=C(C(=O)OCC)C(c2ccc(-c3ccccc3)cc2)C2=C(CC(C)(C)CC2=O)N1 (stereo not drawn) [1-11] | 51 ± 6 | – | – | 55 ± 6 | – | – | inhibition at 50 µM (HCA2/GPR109A; HCA2): 52 ± 5%
CCN1CC2=C(C1=O)C(c1ccc(-c3ccccc3)cc1)C1=C(CC(C)(C)CC1=O)N2 (stereo not drawn) [1-12] | 16 ± 8 | – | – | 21 ± 4 | – | – | inhibition at 50 µM (HCA2/GPR109A; HCA2): 16 ± 4%; activity towards HCA2/GPR109A (in words) (HCA2/GPR109A): low activity; activity towards FFA3/GPR41 (in words) (FFA3/GPR41): low activity; activity towards FFA2/GPR43 (in words) (FFA2/GPR43): low activity
CC(=O)OCCN1C2=C(C(=O)CC(C)(C)C2)C(c2ccccc2)C2=C1CC(C)(C)CC2=O [1-13] | 30 ± 9 | – | – | 32 ± 7 | – | – | inhibition at 50 µM (HCA2/GPR109A; HCA2): 26 ± 8%
CCOC(=O)C1=C(C(=O)O)NC2=C(C(=O)CC(C)(C)C2)C1c1ccc(-c2ccccc2)cc1 (stereo not drawn) [1-14] | – | – | – | – | – | – | activity towards HCA2/GPR109A (in words) (HCA2/GPR109A): completely lacked activity; activity towards FFA3/GPR41 (in words) (FFA3/GPR41): completely lacked activity; activity towards FFA2/GPR43 (in words) (FFA2/GPR43): completely lacked activity
Cc1cc(=O)oc2[nH]c(=S)[nH]c(=O)c12 [2-1] | – | 89 | 4800 ± 360 | – | 96 | 7100 ± 1310 | Emax (FFA2/GPR43): 87%; EC50 (FFA2/GPR43): 19000 ± 6800 nM
CCc1cc(=O)oc2[nH]c(=S)[nH]c(=O)c12 [2-2] | – | – | 370 ± 80 | – | – | – | EC50 (HCA2/GPR109A): 490 ± 60 nM; Emax (HCA2/GPR109A; HCA2, read-out: HCA2/GPR109A Emax, maximal inhibition of forskolin-stimulated cAMP): 99%; Emax (FFA2/GPR43): 91%; EC50 (FFA2/GPR43): 920 ± 40 nM
CCCc1cc(=O)oc2[nH]c(=S)[nH]c(=O)c12 [2-3, 5-Propyl-2-thioxo-2,3-dihydro-1H-pyrano[2,3-d]pyrimidine-4,7-dionee] | 38 ± 2 | – | – | 29 ± 3 | 86 | 870 ± 110 | –
CCCCc1cc(=O)oc2[nH]c(=S)[nH]c(=O)c12 [2-4, 5-Butyl-2-thioxo-2,3-dihydro-1H-pyrano[2,3-d]pyrimidine-4,7-dione] | – | 95 | 190 ± 30 | – | 97 | 550 ± 40 | Emax (FFA2/GPR43): 93%; EC50 (FFA2/GPR43): 740 ± 80 nM
CCCCc1cc(=O)oc2[nH]c(=O)[nH]c(=O)c12 [2-5] | 28 ± 4 | – | – | – | 93 | 51 ± 7 | El.ox. pot. (single value) [1]: 1.94 V
O=c1cc(CCCCCl)c2c(=O)[nH]c(=S)[nH]c2o1 [2-6, 5-(4-Chlorobutyl)-2-thioxo-2,3-dihydro-1H-pyrano[2,3-d]pyrimidine-4,7-dione] | – | 89 | 340 ± 50 | – | 94 | 350 ± 20 | Emax (FFA2/GPR43): 83%; EC50 (FFA2/GPR43): 2500 ± 400 nM
CCCCc1cc(=O)oc2[nH]c(SCC(=O)OCC)nc(=O)c12 [3-1, Ethyl 5-butyl-4,7-dioxo-1,7-dihydro-4H-(pyrano[2,3-d]pyrimidin-2-ylsulfanyl)acetate] | – | 95 | 1600 ± 500 | 65 ± 1 | 93 | 75000 ± 11000 | El.ox. pot. (single value) [1]: 1.97 V
CCOC(=O)CSc1nc(=O)c2c(CCCCCl)cc(=O)oc2[nH]1 [3-2] | – | 91 | 1700 ± 200 | 64 ± 2 | 89 | 43000 ± 8000 | –
O=C(CSc1nc(=O)c2c(CCCCCl)cc(=O)oc2[nH]1)Nc1ccccc1C(=O)O [3-7, 2-2-[5-(4-Chlorobutyl)-4,7-dioxo-1,7-dihydro-4H-pyrano[2,3-d]pyrimidin-2-ylsulfanyl]-acetamino-benzoic acid] | – | 87 | 4600 ± 600 | 52 ± 10 | – | – | inhibition at 50 µM (HCA2/GPR109A; HCA2): 30 ± 6%

From paper PMC8537386, “The Specificity and Broad Multitarget Properties of Ligands for the Free Fatty Acid Receptors FFA3/GPR41 and FFA2/GPR43 and the Related Hydroxycarboxylic Acid Receptor HCA2/GPR109A” (Pharmaceuticals, 2021)
